# Earlier results in patent publication US20120283197A1, “Compositions Comprising a Glucose Anti-Metabolite, BHA, and/or BHT” (priority 2011, published 2012).
# Assays:
# [1] = rats, fed for 18 months, 140 mg/Kg body weight per day
# adipocytes = settings: rats, fed for 18 months, 140 mg/Kg body weight per day
# [2] = test system: hexokinase or other glycolytic enzymes; settings: extracts of mouse lung
# [3] = test system: cultured insulin secreting cells
# [4] = mice, dogs, and other species
structure (smiles),measurement,setting,value
"Cc1cc(C(C)(C)C)c(O)c(C(C)(C)C)c1 [BHT, butylated hydroxytoluene]",insulin sensitivity,[1],increased insulin sensitivity
same,age-related reduction in insulin-stimulated glucose transport in adipocytes,adipocytes,partially ameliorated
same,effect on hexokinase or other glycolytic enzymes,[2],no effect
"COc1ccc(O)c(C(C)(C)C)c1 [BHA, butylated hydroxyanisole]",alloxan-induced increase in insulin secretion,[3],prevent the alloxan-induced increase in insulin secretion
same,negative effects of alloxan,[3],blocked the negative effects of alloxan
"O=C(CO)[C@@H](O)[C@@H](O)[C@H](O)[C@H](O)CO [Mannoheptulose, mannoheptulose]",plasma insulin levels and/or insulin sensitivity,[4],lower plasma insulin levels and/or increase insulin sensitivity
